In ChEMBL document CHEMBL5214933, “Discovery of Selenium-Containing STING Agonists as Orally Available Antitumor Agents” (J Med Chem, 2022):
Converted amounts (≈) assume the structure as drawn. The source made the active and inactive calls. The rule behind the calls is not given here.

Assays:
Mus musculus [1] = experiment: Immunostimulatory activity in naive […] mouse implanted with mouse MC38 cells assessed as increase in CD8 T cells in spleen at 30 mg/kg, po by FACS analysis; format: functional, organism-based; settings: MC-38
4T1 [2] = experiment: Antitumor activity against mouse 4T1 cells implanted in naive BALB/c mouse assessed as increase in Ki67-positive CD8 T cells in tumor at 20 mg/kg, po administered once every 5 days by FACS analysis (reference value: 14%); format: functional; settings: time 5 day
[3] = target: T1, Stimulator of interferon genes protein (Mus musculus) (UniProt Q3TBT3); experiment: Agonist activity at STING in mouse MEF cells assessed as increase in IL6 mRNA expression at 10 uM measured after 3 hrs by qRT-PCR analysis; format: cell-based; settings: filed as agonist
T1 sequence (whole entry): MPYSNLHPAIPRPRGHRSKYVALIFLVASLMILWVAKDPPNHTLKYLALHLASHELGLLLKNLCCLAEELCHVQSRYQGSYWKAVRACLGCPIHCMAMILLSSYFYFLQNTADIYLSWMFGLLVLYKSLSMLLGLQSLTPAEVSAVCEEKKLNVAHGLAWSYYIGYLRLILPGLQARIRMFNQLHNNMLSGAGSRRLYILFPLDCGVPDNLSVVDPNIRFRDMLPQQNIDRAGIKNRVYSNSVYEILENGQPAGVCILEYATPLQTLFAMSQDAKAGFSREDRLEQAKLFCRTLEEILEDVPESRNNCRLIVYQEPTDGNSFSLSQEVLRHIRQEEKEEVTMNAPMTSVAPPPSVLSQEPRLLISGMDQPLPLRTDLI

[4] = target: T2, Stimulator of interferon genes protein (Homo sapiens, UniProt Q86WV6); experiment: Binding affinity to recombinant human STING H232 variant expressed in Escherichia coli BL21 (DE3) assessed as dissociation constant by single cycle SPR analysis
Target sequence in this assay (Q86WV6 whole entry, looked up, stated change not applied): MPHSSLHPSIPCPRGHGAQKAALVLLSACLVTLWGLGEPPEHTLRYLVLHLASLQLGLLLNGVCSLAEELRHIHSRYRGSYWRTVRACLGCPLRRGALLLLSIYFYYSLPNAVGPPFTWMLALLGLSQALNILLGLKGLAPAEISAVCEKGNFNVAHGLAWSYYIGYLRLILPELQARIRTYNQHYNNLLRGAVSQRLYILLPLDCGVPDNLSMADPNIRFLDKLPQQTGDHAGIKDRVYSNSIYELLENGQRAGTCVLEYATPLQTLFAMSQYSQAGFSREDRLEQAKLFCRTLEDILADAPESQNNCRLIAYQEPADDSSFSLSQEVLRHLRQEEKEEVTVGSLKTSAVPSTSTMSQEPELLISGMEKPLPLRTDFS

4T1 [5] = experiment: Antitumor activity against mouse 4T1 cells implanted in naive BALB/c mouse assessed as tumor growth inhibition at 20 mg/kg, po administered once every 5 days and measured every 3 days by digital caliper analysis; format: functional, organism-based; settings: time 5.0 day
[6] = Cmax in Sprague-Dawley rat at 50 mg/kg, po measured for 1440 mins by LC-MS/MS analysis; format: ADME, organism-based; set-up: time 1440 min, dose 50 mg/kg, route po; settings: in vivo
[7] = target: T2, Stimulator of interferon genes protein; experiment: Agonist activity at STING in human THP-1 cells assessed as increase in IFNbeta mRNA expression at 10 uM measured after 3 hrs by qRT-PCR analysis; format: cell-based; settings: filed as agonist
Target sequence in this assay (Q86WV6 whole entry): as the sequence (Q86WV6 whole entry, looked up, stated change not applied) above

[8] = Volume of distribution at steady state in Sprague-Dawley rat at 50 mg/kg, po measured for 1440 mins by LC-MS/MS analysis; format: ADME, organism-based; settings: in vivo, 24 h
Mus musculus [9] = experiment: Immunostimulatory activity in naive […] mouse implanted with mouse MC38 cells assessed as increase in T cells in spleen at 30 mg/kg, po by FACS analysis; format: functional, organism-based; settings: MC-38
[10] = Lipophilicity, logP of compound by RP-HPLC analysis; format: physicochemical
[11] = Oral bioavailability in Sprague-Dawley rat at 50 mg/kg measured for 1440 mins by LC-MS/MS analysis; format: ADME, organism-based; settings: in vivo
CYP3A4 = CYP3A4 (Homo sapiens, UniProt P08684); experiment: Inhibition of recombinant CYP3A4 (unknown origin) using midazolam as substrate assessed as reduction in substrate hydroxylation at 10 uM incubated for 5 mins in presence of NADPH by LC-MS/MS analysis relative to control; format: ADME; settings: recombinant CYP3A4, probe midazolam
[12] = Solubility of compound in PBS buffer at pH 7.4 at 3 mg incubated for 24 hrs under shaking condition by RP-HPLC analysis; format: physicochemical
[13] = target: T2, Stimulator of interferon genes protein; experiment: Agonist activity at STING in human THP-1 cells harboring IRF-inducible luciferase reporter construct assessed as increase in TBK1 phosphorylation measured after 3 hrs by Western blot analysis; format: cell-based; settings: filed as agonist, dose 10-50 µM, DDE = dose-dependent effect
Target sequence in this assay (Q86WV6 whole entry): as the sequence (Q86WV6 whole entry, looked up, stated change not applied) above

[14] = Half life in Sprague-Dawley rat at 50 mg/kg, po measured for 1440 mins by LC-MS/MS analysis; format: ADME, organism-based; settings: in vivo
MC-38 [15] = experiment: In vivo activation of STING in naive […] mouse implanted with mouse MC38 cells assessed as increase in IFN-gamma level in plasma at 30 mg/kg, po administered as single dose and measured after 4 hrs by ELISA; format: functional, organism-based
[16] = target: T2, Stimulator of interferon genes protein; experiment: Agonist activity at STING in human THP-1 cells assessed as increase in CXCL10 mRNA expression at 10 uM measured after 3 hrs by qRT-PCR analysis; format: cell-based; settings: filed as agonist
Target sequence in this assay (Q86WV6 whole entry): as the sequence (Q86WV6 whole entry, looked up, stated change not applied) above

[17] = Protein binding in plasma (unknown origin) assessed as unbound fraction at 2 uM incubated for 4 hrs under shaking condition by rapid equilibrium dialysis method; format: ADME, cell-free
[18] = tested on: Stimulator of interferon genes protein (Homo sapiens), Q86WV6 [UNDEFINED MUTATION]; experiment: Binding affinity to recombinant human STING H232 variant expressed in Escherichia coli BL21 (DE3) assessed as thermal stabilization by measuring change in melting temperature at 2 mM incubated for 30 mins by SYPRO orange dye based differential scanning fluorimetry assay
MC-38 [19] = experiment: In vivo activation of STING in naive […] mouse implanted with mouse MC38 cells assessed as increase in IL-6 level in plasma at 30 mg/kg, po administered as single dose and measured after 4 hrs by ELISA; format: functional, organism-based
[20] = target: T2, Stimulator of interferon genes protein; experiment: Binding affinity to recombinant human STING H232 variant expressed in Escherichia coli BL21 (DE3) assessed as dissociation constant by multicycle SPR analysis
Target sequence in this assay (Q86WV6 whole entry, looked up, stated change not applied): as above

[21] = target: T2, Stimulator of interferon genes protein; experiment: Agonist activity at STING in human THP-1 cells assessed as increase in IL6 mRNA expression at 10 uM measured after 3 hrs by qRT-PCR analysis; format: cell-based; settings: filed as agonist
Target sequence in this assay (Q86WV6 whole entry): as the sequence (Q86WV6 whole entry, looked up, stated change not applied) above

[22] = Clearance in Sprague-Dawley rat at 50 mg/kg, po measured for 1440 mins by LC-MS/MS analysis; format: ADME, organism-based; settings: in vivo
[23] = target: T2, Stimulator of interferon genes protein; experiment: Agonist activity at STING in cGAS knockout human THP-1 cells harboring IRF-inducible luciferase reporter construct assessed as increase in relative fluorescence unit incubated for 12 hrs by Quanti-luc reagent based assay; format: cell-based
Target sequence in this assay (Q86WV6 whole entry): as the sequence (Q86WV6 whole entry, looked up, stated change not applied) above

[24] = target: T2, Stimulator of interferon genes protein; experiment: Agonist activity at STING in human THP-1 cells harboring IRF-inducible luciferase reporter construct assessed as increase in TBK1 phosphorylation at 50 uM measured after 1 hrs by Western blot analysis; format: cell-based; settings: filed as agonist
Target sequence in this assay (Q86WV6 whole entry): as the sequence (Q86WV6 whole entry, looked up, stated change not applied) above

[25] = Aqueous solubility of compound at 3 mg incubated for 24 hrs under shaking condition by RP-HPLC analysis; format: physicochemical; settings: water
[26] = AUC (0 to infinity) in Sprague-Dawley rat at 5 mg/kg, iv measured for 1440 mins by LC-MS/MS analysis; format: ADME, organism-based; set-up: dose 5 mg/kg, time 1440 min, route iv; settings: in vivo
Mus musculus [27] = experiment: Immunostimulatory activity in naive […] mouse implanted with mouse MC38 cells assessed as increase in CD69-positive NK cells in spleen at 30 mg/kg, po by FACS analysis (reference value: 4.7%); format: functional, MC-38
[28] = target: T3, Stimulator of interferon genes protein (Mus musculus, UniProt Q3TBT3); experiment: Agonist activity at STING in mouse RAW264.7 cells harboring IRF-inducible luciferase reporter construct assessed as increase in relative fluorescence unit incubated for 12 hrs by Quanti-luc reagent based assay; format: cell-based
T3 sequence (Q3TBT3 whole entry): T1 sequence (whole entry)

Stimulator of interferon genes protein (Homo sapiens), Q86WV6 [UNDEFINED MUTATION], sequence (Q86WV6 whole entry, looked up, stated change not applied): as above
CYP3A4, sequence (P08684 whole entry): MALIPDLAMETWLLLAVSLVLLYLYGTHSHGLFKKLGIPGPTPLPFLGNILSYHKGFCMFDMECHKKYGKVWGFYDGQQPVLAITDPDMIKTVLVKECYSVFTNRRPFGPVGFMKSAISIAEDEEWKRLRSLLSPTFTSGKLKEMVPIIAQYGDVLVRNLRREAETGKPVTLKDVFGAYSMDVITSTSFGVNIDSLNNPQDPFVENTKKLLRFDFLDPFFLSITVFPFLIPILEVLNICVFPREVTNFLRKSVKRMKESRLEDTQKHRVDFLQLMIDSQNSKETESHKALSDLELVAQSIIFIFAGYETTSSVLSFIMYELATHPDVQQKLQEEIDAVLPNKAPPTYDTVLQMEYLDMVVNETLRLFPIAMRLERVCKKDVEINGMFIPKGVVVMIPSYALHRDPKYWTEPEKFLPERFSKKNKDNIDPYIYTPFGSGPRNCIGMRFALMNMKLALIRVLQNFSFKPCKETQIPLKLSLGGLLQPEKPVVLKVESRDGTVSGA

CC[C@H](CC(=O)c1cc2cc(OC)c(OC)cc2[se]1)C(=O)O
Activity (Mus musculus [1]): Active
Activity (4T1 [2]): 25.2%
Activity [3]: Active
Kd [4]: 23 µM
Activity (4T1 [5]): Active
Cmax [6]: 58.2 µg/mL
Activity [7]: Active
Vdss [8]: 0.38 L/kg
Activity (Mus musculus [9]): Active
logP [10]: 2.4
bioavailability [11]: 107%
inhibition at 5 min, 10 µM (CYP3A4): 13.5%
solubility thermodynamic at 24 h [12]: 1200 µg/mL (≈ 3250 µM)
Activity [13]: Dde
half-life [14]: 1.6 h
Activity (MC-38 [15]): Active
Activity [16]: Active
Fu [17]: 0.07%
ΔTm [18]: 7.4 °C
Activity (MC-38 [19]): Active
Kd [20]: 58 µM
Activity [21]: Active
CL/F [22]: 2.67 mL/min/kg
EC50 [23]: 5.19 µM
Activity [24]: Active
solubility thermodynamic at 24 h [25]: 30 µg/mL (≈ 81.2 µM)
AUC(0-inf) [26]: 29400 ng·h/mL
Activity (Mus musculus [27]): 46.8%
EC50 [28]: 5.71 µM
